In patent US20090018151A1, “Topical Treatment of Peripheral diabetic complications” (priority 2007, published 2009):

Tested on: diabetic neuropathy
Assay: action of minoxidil on diabetic neuropathy (one foot minoxidil, other foot placebo, blinded)
Format: in vivo, human
Excerpt: Example: action of minoxidil on diabetic neuropathy. A subject with a history of type II diabetes and painful symmetric diabetic neuropathy with stable blood sugars for at least 4 weeks prior to beginning therapy had minoxidil applied to one foot and placebo applied to the other foot in a blinded fashion. […] They had not taken any other pain medication 3 months prior to initiating treatment and during treatment. They also had significant skin dryness. Within 2 weeks the subject reported a VAS score improvement of 3 on the foot with the minoxidil treatment.

Nc1cc(N2CCCCC2)nc(N)[n+]1[O-] [minoxidil, 6-(1-piperidinyl)pyrimidine-2,4-diamine 3-oxide]
Re-growth of hair (foot treated with minoxidil vs placebo foot, subject had hair loss on the feet up to mid-calf): Re-growth of hair was found on the side treated with minoxidil only | Improvement of the dryness of the skin (foot treated with minoxidil vs placebo foot, subject had significant skin dryness): Improvement of the dryness of the skin was also noted on the side treated with minoxidil only | VAS score improvement (person, type II diabetes, painful symmetric diabetic neuropathy, minoxidil applied to one foot, within 2 weeks): 3
